We go through five compounds from patent US5273985A, “Glycerin derivative and its pharmacological use” (Eisai Co., Ltd., priority 1988, dated 1993).

pIC50: −log10 of the molar value.

Series [1] deals with platelet agglutination caused by PAF. Description: Inhibition of platelet agglutination caused by human PAF (platelet-rich plasma, optical method of Born). The class given is cell-based. The following applies: PAF at minimum concentration for maximum agglutination, read-out: Agglutination inhibiting activity IC50. The procedure:
Effect on the Agglutination Caused by Human PAF
One part by volume of a 3.8% sodium citrate solution was added to 9 parts by volume of blood sampled from the forearm of a healthy adult to whom had been administered no medicine for at least two weeks. A platelet-rich plasma (PRP) was prepared by centrifugation. The inhibition of the platelet agglutination was determined by an optical method of Born et al. with a Hematolaser II® (a platelet agglutination meter of Niko Bioscience Co.). PAF was dissolved in Tyrode solution [Ca^++ (+)] to form a solution having the minimum concentration for causing the maximum agglutination. The test compound was dissolved in a physiological saline.
The agglutination inhibiting activity of the test compound was determined from the rate of inhibition of the maximum light transmittance (maximum agglutination rate) caused by PAF in control PRP. IC50 was determined from the inhibition curve.
The numeral in the column of the Test compound in Table 1 refers to the Example number of the compound.

Series [2] deals with T1, Human PAF Receptor (Homo sapiens, UniProt P25105).
T1 construct: The platelets were sampled from healthy males by an ordinary method; endogenous in cells; host or cells: human platelets from healthy males (intact platelet suspension)
T1 sequence (P25105 whole entry): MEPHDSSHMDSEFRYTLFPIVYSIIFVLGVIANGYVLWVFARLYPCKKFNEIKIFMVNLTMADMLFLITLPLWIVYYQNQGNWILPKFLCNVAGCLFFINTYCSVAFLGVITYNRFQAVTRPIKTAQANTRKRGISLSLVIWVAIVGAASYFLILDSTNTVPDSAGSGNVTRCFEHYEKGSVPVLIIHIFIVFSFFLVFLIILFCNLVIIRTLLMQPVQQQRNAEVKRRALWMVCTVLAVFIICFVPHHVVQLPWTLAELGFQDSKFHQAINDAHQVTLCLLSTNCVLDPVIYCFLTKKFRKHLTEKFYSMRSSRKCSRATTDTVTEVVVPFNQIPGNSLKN
Nature of the series: Human PAF receptor binding assay (3H-PAF, platelets). The following applies: 3H-PAF 0.6 to 1 nM, 37° C., read-out: PAF receptor antagonism IC50. How it is done: Human PAF Receptor Binding Assay
The platelets were sampled from healthy males by an ordinary method and suspended in a binding buffer [10 mM phosphate-buffered saline (pH 7.0) containing 0.1 w/v % of BSA and 0.9 mM of CaCl2) to form a suspension having a concentration of 10^8 /460 μl. 20 μl of a solution of the test compound in the binding buffer was placed in a polypropylene tube and then 460 μl of the platelet suspension was added thereto. The mixture was subjected to a vortex treatment and then incubated at 37° C. for 6 min. 20 μl of a solution of ^3 H-PAF in the binding buffer (final ^3 H-PAF concentration: 0.6 to 1 nM) was added thereto and the mixture was incubated for 6 min. 3 ml of a washing solution (saline containing 0.1 w/v % of BSA) cooled with ice was added thereto to terminate the reaction. The reaction mixture was filtered by suction through a glass filter (Whatman GF/C). The glass filter was dried and the radioactivity thereof was determined with a liquid scintillation counter.
The inhibition % was calculated according to the following equation and IC50 so was determined by interpolation from the figure. [formula] wherein: total binding: dpm obtained when the concentration of the medicine or PAF is 0,
non-specific binding: dpm obtained when 10^-5 M of cold PAF was added.

Series [3] relates to blood pressure drop induced by PAF. Nature of the series: Action on the blood pressure drop induced by PAF. The class given is in vivo, F344 rats. The following applies: Rattus norvegicus, iv, 0.05 h; 0.01 mg/kg, i.v., three minutes after 0.5 μg/kg PAF; ratio of blood pressure rise to drop; read-out: Recovery rate. How it is done: Action on the Blood Pressure Drop Induced by […]
Cannulae were inserted into the carotid and the jugular of each of F344 rats anesthetized with Pento (50 mg/kg, i. p.). The blood pressure was determined at the carotid and 0.5 ml/kg of PAF or the test compound was given through the jugular. Three minutes after the injection of 0.5 μg/kg of PAF, the test compound was given and the antagonism thereof was evaluated.
The recovery rate shown in Table 4 is the ratio of the blood pressure rise by the test compound to the drop thereof.

Series [4] in a line: Determination of stability in aqueous solution. In kind it is physicochemical. Particulars: pH 7.4, 37° C., 0.5M sodium phosphate; read-out: Half-value period of disappearance due to hydrolysis (t1/2) (converted). The procedure:
Determination of Stability in Aqueous Solution
These compounds were unstable in a neutral or alkaline aqueous solution mainly due to the hydrolysis reaction of the N-acetyl or N-benzoyl group. The relationships between the pH and decomposition rate of several compounds were examined to find that they have the same pattern. The decomposition rate constant under conditions (pH 7.4, 37° C.) where they were relatively easily decomposed was determined and the stabilities of the compounds were compared with one another.
9 parts by volume of a buffer solution (0.5M sodium phosphate, pH 7.4) was added to 1 part by volume of an aqueous sample solution (1 mg/ml) and the mixture was kept at 37° C. The sampling was conducted at appropriate time intervals and the residual rate of an unreacted compound was determined by reversed phase high-performance liquid chromatography. Since the decomposition rate of most of the compounds can be approximately represented by the first-order decomposition rate equation, the decomposition rate constant was determined by the least squares method.

Series [5] has as its system lethal activity of PAF. Description: Preventive effect against the lethal activity of PAF. The class given is in vivo, ICR male mice. Particulars: 15 minutes before PAF i.v.; for number of dead mice / number of mice (Survival rate): after one hour; for Survival rate: survival after one hour. How it is done: Preventive Effect Against the Lethal Activity of PAF:
A physiological saline or the test compound was given to ICR male mice weighing around 30 g by intravenous injection. After 15 minutes, 100 wg/kg of PAF was given to them by intravenous injection. Life and death of them were examined after one hour and the survival rate was determined.
The survival rate is given by percentage. The denominator of the fraction
is the number of the mice and the numerator is the number of the dead

Turning to `CCCCCCCCCCCCCCCCCCOc1c(OC)cc(COCC(COC(=O)N(Cc2cccc[n+]2CC)C(=O)c2ccccc2OC)OC)cc1OC` (centres unmarked) [Example 18, 1-ethyl-2-(((N-((3,5-dimethoxy-4-octadecyloxy)benzyloxy-2-methoxypropyloxy))carbonyl-N-(2-methoxy)benzoyl))) aminomethyl pyridinium chloride], the negative logarithm of the IC50 (pIC50) is 6.18 in series [1] and 9.15 in series [2]. Moreover, in series [3], the inhibition in vivo at 0.01 mg/kg turned out to be 74.1%. Besides, the half-life in series [4] was 37.7 h.

With `CCCCCCCCCCCCCCCCCCNC(=O)OC1CCN(C(=O)OCC(COC(=O)N(Cc2cccc[n+]2CC)C(=O)c2ccccc2OC)OC)CC1` (centres unmarked) [Example 15, 1-Ethyl-2-[N-(2-methoxy)benzoyl-N-{2-methoxy-3-(4-octadecylcarbamoyloxy)piperidinocarbonyloxypropyloxyl}carbonyl]aminomethylpyridinium chloride], the pIC50 in series [1] was 7.10; in series [2], 9.72. Further, the “number of dead mice / number of mice (Survival rate)” value in series [5] (0.03 mg/kg i.v.) is reported as 2/7; in series [5] (0.1 mg/kg i.v.) it was 3/7; in series [5] (0.3 mg/kg i.v.), 0/7. Besides, the Survival rate is listed as 71.4% in series [5] (0.03 mg/kg i.v.), 57.1% in series [5] (0.1 mg/kg i.v.) and 100% in series [5] (0.3 mg/kg i.v.). The inhibition in vivo at 0.01 mg/kg in series [3] came to 94.6%. Further, the half-life in series [4] is 24.4 h.

Regarding `CCCCCCCCCCCCCCCCCCOC(=O)N1CCN(C(=O)OCC(COC(=O)N(Cc2cccc[n+]2CC)C(=O)c2ccccc2OC)OC)CC1` (centres unmarked) [Example 6, 1-Ethyl-2-[N-(2-methoxy)benzoyl-N-{2-methoxy-3-(4-octadecyloxycarbonyl)piperazylcarbonyloxy}propoxycarbonyl]aminomethylpyridinium chloride], the figures for the pIC50 in series [1] and in series [2] were 6.80 and 9.72, respectively. Besides, the inhibition in vivo at 0.01 mg/kg in series [3] worked out at 88.5%. Further, the half-life in series [4] was 28.2 h.

As to `CCCCCCCCCCCCCCCCCCNS(=O)(=O)c1ccc(CNC(=O)OCC(COC(=O)N(Cc2cccc[n+]2CC)C(=O)c2ccccc2OC)OC)cc1` (centres unmarked) [Example 13, 1-Ethyl-2-[N-(2-methoxy)benzoyl-N-{2-methoxy-3-(4-octadecylsulfamoyl)benzylcarbamoyloxypropyloxy}carbonyl]aminomethylpyridinium chloride], the pIC50 in series [1] is 7.14; in series [2], 9.60. For the same compound, the “number of dead mice / number of mice (Survival rate)” value is recorded as 3/7 in series [5] (0.03 mg/kg i.v.), 0/7 in series [5] (0.1 mg/kg i.v.) and 0/7 in series [5] (0.3 mg/kg i.v.). Further, the Survival rate in series [5] (0.03 mg/kg i.v.) is listed as 57.1%; in series [5] (0.1 mg/kg i.v.), 100%; in series [5] (0.3 mg/kg i.v.), 100%. Also, the inhibition in vivo at 0.01 mg/kg in series [3] is 89.7%. The half-life in series [4] was 21.5 h.

In the case of `CCCCCCCCCCCCCCCCCCNC(=O)OCCCNC(=O)OCC(COC(=O)N(Cc1cccc[n+]1CC)C(=O)c1ccccc1OC)OC` (centres unmarked) [Example 14, 1-Ethyl-2-[N-(2-methoxy)benzoyl-N-{2-methoxy-3-(3-octadecylcarbamoyloxy)propylcarbamoyloxy}propoxycarbonyl]aminomethylpyridinium chloride], the pIC50 in series [1] was 7.36; in series [2], 9.72. In series [3], the inhibition in vivo at 0.01 mg/kg turned out to be 96.8%. Also, the half-life in series [4] was 26.1 h.

The term pIC50 denotes the negative decadic logarithm of the IC50, by convention in mol/L.
